Values after ≈ are worked out from the molar mass of the structure shown.
Key:
Format in all cases: functional
Streptococcus pneumoniae [1] = assay: In vitro antibacterial activity against the gram-positive bacteria, penicillin sensitive Streptococcus pneumoniae (3512)
Staphylococcus aureus [2] = assay: In vitro antibacterial activity against the gram-positive bacteria, penicillin sensitive Staphylococcus aureus (663E)
Staphylococcus aureus [3] = assay: In vitro antibacterial activity against the gram-positive bacteria, penicillin resistant Staphylococcus aureus (2672)
Streptococcus pneumoniae [4] = assay: In vitro antibacterial activity against the gram-positive bacteria, penicillin resistant Streptococcus pneumoniae (4635)
Staphylococcus aureus [5] = assay: In vitro antibacterial activity against the gram-positive bacteria, penicillin resistant Staphylococcus aureus (853)
Streptococcus pyogenes = assay: In vitro antibacterial activity against the gram-positive bacteria, erythromycin resistant Streptococcus pyogenes
Streptococcus pneumoniae [6] = assay: In vitro antibacterial activity against the gram-positive bacteria, penicillin resistant Streptococcus pneumoniae (4629)
Streptococcus pneumoniae [7] = assay: In vitro antibacterial activity against the gram-positive bacteria, penicillin resistant Streptococcus pneumoniae (4630)
Staphylococcus aureus [8] = assay: In vitro antibacterial activity against the gram-positive bacteria, penicillin sensitive Staphylococcus aureus (3849)
Staphylococcus aureus [9] = assay: In vitro antibacterial activity against the gram-positive bacteria, penicillin sensitive Staphylococcus aureus (3072)
Streptococcus pneumoniae [10] = assay: In vitro antibacterial activity against the gram-positive bacteria, penicillin sensitive Streptococcus pneumoniae (3273)
Streptococcus pneumoniae [11] = assay: In vitro antibacterial activity against the gram-positive bacteria, penicillin sensitive Streptococcus pneumoniae (3272)
Staphylococcus aureus [12] = assay: In vitro antibacterial activity against the gram-positive bacteria, penicillin resistant Staphylococcus aureus (2619)
Streptococcus pneumoniae [13] = assay: In vitro antibacterial activity against the gram-positive bacteria, penicillin resistant Streptococcus pneumoniae (4636)

| Structure (SMILES) | MIC (Streptococcus pneumoniae [1]) [µg/mL] | MIC (Staphylococcus aureus [2]) [µg/mL] | MIC (Staphylococcus aureus [3]) [µg/mL] | MIC (Streptococcus pneumoniae [4]) [µg/mL] | MIC (Staphylococcus aureus [5]) [µg/mL] | MIC (Streptococcus pyogenes) [µg/mL] | MIC (Streptococcus pneumoniae [6]) [µg/mL] | MIC (Streptococcus pneumoniae [7]) [µg/mL] | MIC (Staphylococcus aureus [8]) [µg/mL] | MIC (Staphylococcus aureus [9]) [µg/mL] | MIC (Streptococcus pneumoniae [10]) [µg/mL] | MIC (Streptococcus pneumoniae [11]) [µg/mL] | MIC (Staphylococcus aureus [12]) [µg/mL] | MIC (Streptococcus pneumoniae [13]) [µg/mL] |
| --- | --- | --- | --- | --- | --- | --- | --- | --- | --- | --- | --- | --- | --- | --- |
| CC(=O)OCC1=C(C(=O)O)N2C(=O)[C@@H](NC(=O)CN(OCc3ccccc3)C(=O)Nc3ccccc3)C2SC1 (some centres undefined) | 0.25 (≈ 0.451 µM) | 0.5 (≈ 0.902 µM) | 4 (≈ 7.21 µM) | 8 (≈ 14.4 µM) | 1 (≈ 1.8 µM) | 0.12 (≈ 0.216 µM) | 8 (≈ 14.4 µM) | 8 (≈ 14.4 µM) | 0.5 (≈ 0.902 µM) | 1 (≈ 1.8 µM) | 0.25 (≈ 0.451 µM) | 0.12 (≈ 0.216 µM) | 2 (≈ 3.61 µM) | 16 (≈ 28.9 µM) |
| CC1(C)S[C@@H]2[C@H](NC(=O)[C@H](N)c3ccc(O)cc3)C(=O)N2[C@H]1C(=O)O.O=C(O)[C@H]1/C(=C/CO)O[C@@H]2CC(=O)N21 | < 0.015 | 0.25 | 1 | 4 | 2 | 0.06 | 4 | 2 | 0.25 | 0.5 | < 0.015 | < 0.015 | 2 | 4 |
| N[C@@H](C(=O)N[C@@H]1C(=O)N2C(C(=O)O)=C(Cl)CS[C@H]12)c1ccccc1 [CEFACLOR ANHYDROUS] | 1 (≈ 2.72 µM) | 1 (≈ 2.72 µM) | 64 (≈ 174 µM) | 16 (≈ 43.5 µM) | 64 (≈ 174 µM) | 0.5 (≈ 1.36 µM) | 32 (≈ 87 µM) | 16 (≈ 43.5 µM) | 1 (≈ 2.72 µM) | 4 (≈ 10.9 µM) | 0.5 (≈ 1.36 µM) | 1 (≈ 2.72 µM) | 16 (≈ 43.5 µM) | 16 (≈ 43.5 µM) |
| CC1(C)S[C@@H]2[C@H](NC(=O)Cc3ccccc3)C(=O)N2[C@H]1C(=O)O [PENICILLIN G] | < 0.5 | < 0.5 | 64 (≈ 191 µM) | 8 (≈ 23.9 µM) | 64 (≈ 191 µM) |  | 4 (≈ 12 µM) | 4 (≈ 12 µM) | < 0.5 | < 0.5 | 0.5 (≈ 1.5 µM) | < 0.5 | 64 (≈ 191 µM) | 8 (≈ 23.9 µM) |
| CO/N=C(\C(=O)N[C@@H]1C(=O)N2C(C(=O)O)=C(COC(N)=O)CS[C@H]12)c1ccco1 [CEFUROXIME] | 0.06 (≈ 0.141 µM) | 1 (≈ 2.36 µM) | 2 (≈ 4.71 µM) | 32 (≈ 75.4 µM) | 2 (≈ 4.71 µM) | 0.06 (≈ 0.141 µM) | 32 (≈ 75.4 µM) | 16 (≈ 37.7 µM) | 1 (≈ 2.36 µM) | 2 (≈ 4.71 µM) | 0.25 (≈ 0.589 µM) | 0.06 (≈ 0.141 µM) | 2 (≈ 4.71 µM) | 16 (≈ 37.7 µM) |

From ChEMBL document CHEMBL1132087, “New N-substituted 7-aminocephalosporanic acid derivatives as potential agents against Streptococcus pneumoniae. Synthesis and in vitro activity” (1999)
